This note sets out measurements from patent US20230119360A1, “PHARMACEUTICAL COMBINATION OF A THERAPEUTIC OLIGONUCLEOTIDE TARGETING HBV AND A TLR7 AGONIST FOR TREATMENT OF HBV” (priority 2019, published 2023).

Bounds are passed on as bounds.

Series [1] has as its system HBV. The series can be described thus: AAV-HBV mouse model, single dose siRNA vs ASO: serum HBsAg. The format is in vivo, C57BL/6 mice. The conditions noted are these: 6.6 mg/kg single subcutaneous injection Day 0. Here is the method:
The purpose of this study was to evaluate the in vivo pharmacology and efficacy of certain compounds in AAV-HBV mouse model.
Recombinant adeno-associated virus (AAV) carrying the Hepatitis B Virus (HBV) genome rAAV8-1.3HBV ayw (Lot No: 2019032703) was purchased from Beijing FivePlus Molecular Medicine Institute, and stored at −70° C. before use.
One hundred and fifteen (115) male C57BL/6 mice were obtained. On Pre-dose Day 0, all the animals were subjected to injection through tail vein with 1×10^11 vector genome of AAV-HBV for model induction. Based on baseline serum viral markers and body weight on Pre-dose Day 24, 80 qualified HBV-infected mice were selected.
The 80 selected mice were randomized into 4 groups for compound treatment. Sterile water, DCR-AUD1, DCR-5219 (9 mg/kg), and CMP ID NO: 15_1 (6.6 mg/kg) were subcutaneously injected once at 5 mL/kg on Day 0. The dosing volume was […].
Whole blood was collected to prepare serum (15 μL per mouse) twice weekly during Day 0˜21. On Day 21, the mice were euthanized. […]
Baseline serum levels of HBsAg were determined by ARCHITECT i2000 (Abbott Laboratories, Lake Bluff, IL, USA) and supporting reagents. Baseline serum HBV DNA level was measured by using ABI7500 (Applied Biosystems, Foster City, Calif., USA) and detection kit (Sansure Biotech Inc., Changsha, Hunan, China).

Series [2] has as its system HBV. The series can be described thus: AAV/HBV mouse model: HBsAg levels in serum (CLIA). The format is in vivo, C57BL/6 mice. On the set-up: HBsAg levels in serum, Average ± SD: unit not given here. The conditions noted are these: for HBsAg levels in serum, Average ± SD: AAV/HBV mice, anti-HBV ASO 7.5 mg/kg weekly, TLR7 100 mg/kg weekly (QW). From the text:
(§1) The AAV-HBV mouse model is generated by injecting C57BL/6 mice with recombinant adeno-associated virus harboring a replicable HBV genome (AAV-HBV). The rAAV8-1.3 HBV ayw virus stock was purchased from Beijing FivePlus Molecular Medicine Institute (Beijing, China).
The animals (male, aged 4-5 weeks upon arrival) were purchased from SLAC Laboratory Animal Co. Ltd (Shanghai, China), acclimatized in the animal facility for 5-7 days, and then injected with 1×10^11 vector genome of AAV-HBV (diluted in 200 μL of PBS) through the tail vein. Persistence expression of HBV genome can be established after three weeks, with high levels of HBV viral markers including HBV DNA, HBsAg, and HBeAg in mouse serum. With stable HBV viremia and competent immune system of the C57BL/6 mice, the AAV-HBV mouse model was used to evaluate the in vivo anti-HBV efficacy of the compounds. The in-life part of the AAV-HBV study was conducted through contracted service at Covance Pharmaceutical Research and Development (Shanghai) Co. Ltd. (Covance Shanghai) and the post-life analysis using the serum was performed internally at Roche Innovation Center Shanghai (RICS).
Seven days before compound treatment, blood samples were collected for serum preparation (˜15 μL), and based on HBV DNA, HBsAg levels in serum and body weight, the AAV-HBV infected animals were stratified into the different treatment groups.
Saline (Group 01) and anti-HBV ASO of CMP ID NO: 15_1 at 1.5 or 7.5 mg/kg were dosed sub subcutaneously once a week during Day 0-49 on Days 0, 7, 14, 21, 28, 35, 42 and 49. TLR7 agonist of CMP ID NO: VI 100 mg/kg was administered by oral gavage once every other day during Day 0-55 (QOD) or once weekly during Day 0-49 on Days 0, 7, 14, 21, 28, 35, 42 and 49 (QW). The animals were weekly bled via retro-orbital sinus for sample collection throughout the study. • Oligonucleotide Synthesis
Serum HBsAg levels were determined in the serum of infected AAV-HBV mouse using the HBsAg chemoluminescence immunoassay (CLIA) (Autobio diagnostics Co. Ltd., Zhengzhou, China, Cat. no.CL0310-2), according to the manufacturer's protocol. Briefly, 50μl of serum was transferred to the antibody coated microtiter plate and 50 μl of enzyme conjugate reagent was added. The plate was incubated for 60 min on a shaker at room temperature before all wells were washed six times with washing buffer using an automatic washer. 25 μl of substrate A and then 25 μl of substrate B was added to each well. The plate was incubated for 10 min at RT before luminescence was measured using an Envision luminescence reader (Perkin Elmer). HBsAg is given in the unit IU/ml; where 1 ng HBsAg=1.14 IU.
To evaluate the combination of the anti-HBV ASO and the TLR7 agonist in an in vivo system, a mouse model of chronic HBV infection was used. In the AAV/HBV mouse model described in the Materials and Method a persistent HBV infection is established resulting in expression of viral markers (HBsAg, HBeAg, HBV DNA) detectable in plasma. The effect on these viral markers upon treatment with the anti-HBV ASO of CMP ID NO: 15_1 (table 2, and FIG. 4) dosed at 1.5 mg/kg or 7.5 mg/kg and the TLR7 agonist of CMP ID NO: VI (table 3) dosed with […] every other day (QOD) or once weekly (QW) in monotherapy or in combination has been evaluated.

In series [3] the test system is HBV. The series can be described thus: AAV/HBV mouse model: HBV-DNA levels in serum (qPCR). The format is in vivo, C57BL/6 mice.
Excerpt: as §1
The animals (male, aged 4-5 weeks upon arrival) were purchased from SLAC Laboratory Animal Co. Ltd (Shanghai, China), acclimatized in the animal facility for 5-7 days, and then injected with 1×10^11 vector genome of AAV-HBV (diluted in 200 μL of PBS) through the tail vein. Persistence expression of HBV genome can be established after three weeks, with high levels of HBV viral markers including HBV DNA, HBsAg, and HBeAg in mouse serum. […]
Quantification of extracted HBV DNA was performed using a Taqman qPCR machine (ViiA7, life technologies). […] DNA copy numbers were calculated from Ct values based on a HBV plasmid DNA standard curve by the ViiA7 software.
To evaluate the combination of the anti-HBV ASO and the TLR7 agonist in an in vivo system, a mouse model of chronic HBV infection was used. […] The effect on these viral markers upon treatment with the anti-HBV ASO of CMP ID NO: 15_1 (table 2, and FIG. 4) dosed at 1.5 mg/kg or 7.5 mg/kg and the TLR7 agonist of CMP ID NO: VI (table 3) dosed with […] every other day (QOD) or once weekly (QW) in monotherapy or in combination has been evaluated.
(In general: Real-time PCR tracks product formation cycle by cycle.)

Series [4] relates to HBV. The series can be described thus: Entecavir combination study in HBV-expressing mouse (HDI model). The format is in vivo. The conditions noted are these: HDI mice; monotherapy. The method, then: The RNAi oligonucleotides targeting the S antigen impact both the viral polymerase and HBsAg protein. In this study, the combinational effects of HBV(s)-219P2 as a monotherapy and combinational treatment with entecavir was explored in an HBV-expressing mouse (HDI model) for antiviral activity.
Mice were administered daily oral dosing of 500 ng/kg Entecavir (ETV) for 14 days. A single subcutaneous administration of HBV(s)-219P2 took place. Circulating viral load (HBV DNA) was measured by qPCR (FIG. 25A), plasma HBsAg level was measured by ELISA (FIG. 25B), and liver HBV mRNA and pgRNA levels were measured by qPCR.

The subject of another series is HBsAg. The method, then: Preclinical potency was further evaluated in mice following a QW×3 dosing regimen in which HBV-254 was subcutaneously administered at 3 mg/kg (FIG. 23). The administration points are indicated by arrows in the figure. HBsAg levels were monitored in both oligonucleotide treated and untreated control mice for a period spanning 147 days.
Each oligonucleotide, including HBV-254, was evaluated at three concentrations (1, 10, and 100 pM) in HeLa cells using the fluorescence-based reporter assay.

With “5′-GN2-C6ocoaoGs^mCsGstsasasasgsasgsasGsG-3′ [CMP ID NO: 15_1]”, the “time until which decrease in HBsAg was maintained before rebound” value with HBV [1] is listed as “about 10 days”. In the series with HBV [1] (21 days), the “HBsAg level over time” value is recorded as “rapid decrease in HBsAg level”. Moreover, the “HBsAg levels in serum, Average ± SD” value with HBV [2] (D 0) came to 4.30 ± 0.30; in the series with HBV [2] (D 7) it was 1.71 ± 0.24; in the series on HBV [2] (D 14) it was 1.83 ± 0.21; with HBV [2] (D 21), 1.43 ± 0.17; in the series on HBV [2] (D 28), 1.30 ± 0.19; in the series with HBV [2] (D 35), 1.36 ± 0.26. In addition, the “HBsAg levels in serum, Average ± SD” value in the series on HBV [2] (D 42) is 1.30 ± 0.16; with HBV [2] (D 49), 1.56 ± 0.16; in the series on HBV [2] (D 56), 1.32 ± 0.24; in the series with HBV [2] (D 63), 1.33 ± 0.47; in the series with HBV [2] (D 70), 2.18 ± 0.91; with HBV [2] (D 77), 2.70 ± 0.85. In addition, the “HBsAg levels in serum, Average ± SD” value in the series on HBV [2] (D 84) is given as 3.17 ± 0.60; in the series on HBV [2] (D 91), 3.82 ± 0.38; with HBV [2] (D 98), 3.64 ± 0.81; with HBV [2] (D 105), 3.61 ± 0.97; in the series on HBV [2] (D 111), 3.40 ± 1.49. In the series with HBV [2] (anti-HBV ASO 1.5 mg/kg monotherapy), the “suppression of HBsAg below the detection limit” value is listed as “not capable of suppressing HBsAg to a level below the detection limit”. Also, the “reduction in HBV-DNA” value in the series with HBV [3] (monotherapy at both 1.5 mg/kg and 7.5 mg/kg) is “rapid reduction in HBV-DNA to below the lower level of quantification”.
Take `CC[C@H](OC(C)=O)[C@@H]1C[C@@H](O)[C@H](n2c(=O)sc3cnc(N)nc32)O1` [CMP ID NO: VI, [(1S)-1-[(2S,4R,5R)-5-(5-amino-2-oxo-thiazolo[4,5-d]pyrimidin-3-yl)-4-hydroxy-tetrahydrofuran-2-yl]propyl] acetate]: in the series with HBV [2] (TLR7 agonist alone (FIG. 10A)), the “day of lowest HBsAg” value was 42 days. Moreover, in the series with HBV [3] (TLR7 agonist monotherapy, QOD or QW), the “HBV DNA rebound, distance from control group during follow-up” value was at most 1 log.
With `C=C1[C@H](CO)[C@@H](O)C[C@@H]1n1cnc2c(=O)[nH]c(N)nc21` [entecavir, Entecavir], in the series on HBV [4], the “circulating HBsAg” value is on record as “No significant decrease” and the “hepatic viral RNAs” value is recorded as “No significant decrease”.
On to “HBV-254: HBsAg-targeting duplex oligonucleotide, sense SEQ ID NO: 55, antisense SEQ ID NO: 56 (sense GUGGUGGACUUCUCUCAAUAGCAGCCGAAAGGCUGC; antisense UAUUGAGAGAAGUCCACCACGG; chemistry not given here)”, for which the HBsAg levels result with HBsAg (HDI-mice, single subcutaneous dose, increasing dosage) is “systematically reduced HBsAg levels in mice with increasing dosage”. For the same molecule, in the series on HBsAg (mice, QW×3, 3 mg/kg subcutaneous, monitored 147 days), the “HBsAg levels relative to control” value is given as “Diminished HBsAg levels persisted in treated mice throughout the entirety of the study”.
